Experimental data as given in US9408387B2, “Safening 6-amino-2-(substituted phenyl)-5-substituted-4-pyrimidinecarboxylate herbicide injury on cereal crops” (Dow AgroSciences LLC, priority 2009, dated 2016).

Columns and labels:
Type in all cases: in vivo
[1] = tested on: spring wheat (Triticum aestivum L; TRZAS); assay: Postemergence herbicidal safening in cereal crops, greenhouse, visual injury: spring wheat
Outline: (§1)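 Plants are grown in a greenhouse for 7-36 d to the second or third true leaf stage. Compounds, with or without safener, are sprayed overhead at 187 L/ha. Plants are then sub-irrigated, and injury is scored visually after 20-22 d.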

[2] = tested on: spring barley (Hordeum vulgare L; HORVS); assay: Postemergence herbicidal safening in cereal crops, greenhouse, visual injury: spring barley
Outline: as §1

MATCH = assay: Postemergence herbicidal activity, greenhouse, visual injury: MATCH; conditions: for MATCH Ob (visual injury): 20-22 d
Description: (§2) Evaluation of Postemergence Herbicidal Safening in Cereal Crops
(§3) Seeds of the desired test plant species were planted in Sun Gro MetroMix® 306 planting mixture, which typically has a pH of 6.0 to 6.8 and an organic matter content of about 30 percent, in plastic pots with a surface area of 103.2 square centimeters (cm^2). When required to ensure good germination and healthy plants, a fungicide treatment and/or other chemical or physical treatment was applied. The plants were grown for 7-36 days (d) in a greenhouse with an approximate 14-hour (h) photoperiod which was maintained at about 18° C. during the day and 17° C. during the night. Nutrients and water were added on a regular basis and supplemental lighting was provided with overhead metal halide 1000-Watt lamps as necessary. The plants were employed for testing when they reached the second or third true leaf stage.
(§4) Treatments consisted of the acids or esters of compounds 1-10 and cloquintocet-mexyl (CQC-M), fenchlorazole-ethyl, mefenpyr-diethyl alone and in combination. Weighed amounts of acid or methyl esters of the compounds of formula (I) were dissolved in a volume of 97:3 v/v acetone/dimethylsulfoxide (DMSO) to obtain concentrated solutions. […] The concentrated solutions of the test compound were diluted with the addition of an aqueous mixture containing acetone, water, isopropyl alcohol, DMSO, Agri-Dex crop oil concentrate, and Triton® X-77 surfactant in a 64.7:26.0:6.7:2.0:0.7:0.01 v/v ratio. Test compounds were diluted to the appropriate application rate with a dilution solution which was prepared by mixing the appropriate volume of 97:3 v/v acetone/DMSO and the appropriate volume of an aqueous mixture containing acetone, water, isopropyl alcohol, DMSO, Agri-Dex crop oil concentrate, and Triton® X-77 surfactant in a 64.7:26.0:6.7:2.0:0.7:0.01 v/v ratio. Compound requirements are based upon a 12 mL application volume at a rate of 187 liters per hectare (L/ha). The concentrated solutions of the safener were prepared following the same procedure. Weighed amounts of safener were dissolved in a volume of 97:3 v/v acetone/DMSO to obtain concentrated safener solutions.
(§5) Spray solutions of the herbicide safener and test compound mixtures were prepared by adding the concentrated solutions to the appropriate amount of dilution solution to form 12 mL spray solution with active ingredients in combinations.
(§6) Formulated compounds were applied to the plant material with an overhead Mandel track sprayer equipped with 8002E nozzles calibrated to deliver 187 L/ha over an application area of 0.503 square meters (m^2) at a spray height of 18 inches (43 centimeters (cm)) above average plant canopy. Control plants were sprayed in the same manner with the solvent blank.
(§7) The treated plants and control plants were placed in a greenhouse as described above and watered by sub-irrigation to prevent wash-off of the test compounds. After 20-22 d, the condition of the test plants as compared with that of the control plants was determined visually and scored on a scale of 0 to 100 percent where 0 corresponds to no injury and 100 corresponds to complete kill.
(§8) Colby's equation was used to determine the herbicidal effects expected from the mixtures (Colby, S. R. Calculation of the synergistic and antagonistic response of herbicide combinations. Weeds 1967, 15, 20-22.).
(§9) The following equation was used to calculate the expected activity of mixtures containing two active ingredients, A and B: Expected=A+B−(A×B/100)
(§10) A=observed efficacy of active ingredient A at the same concentration as used in the mixture.
(§11) B=observed efficacy of active ingredient B at the same concentration as used in the mixture.

[3] = tested on: winter barley (Hordeum vulgare L; HORVW); assay: Postemergence herbicidal safening in cereal crops, greenhouse, visual injury: winter barley; conditions: 20-22 d
Description: as §2, §3, §4, §5, §6, §7, §8, §9, §10, §11

[4] = tested on: winter wheat (Triticum aestivum L; TRZAW); assay: Postemergence herbicidal safening in cereal crops, greenhouse, visual injury: winter wheat; conditions: 20-22 d
Description: as §2, §3, §4, §5, §6, §7, §8, §9, §10, §11

[5] = tested on: purple deadnettle (Lamium purpureum L; LAMPU); assay: Postemergence herbicidal activity, greenhouse, visual injury: purple deadnettle
Outline: as §1

[6] = tested on: wild pansy (Viola tricolor; VIOTR); assay: Postemergence herbicidal activity, greenhouse, visual injury: VIOTR
[7] = tested on: kochia (Kochia scoparia L; KCHSC); assay: Postemergence herbicidal activity, greenhouse, visual injury: kochia; conditions: for KCHSC Ob (visual injury): 20-22 d
Outline: as §1

[8] = tested on: bird's-eye speedwell (Veronica persica L; VERPE); assay: Postemergence herbicidal activity, greenhouse, visual injury: bird's-eye speedwell
Description: as §2, §3, §4, §5, §6, §7, §8, §9, §10, §11

AMARE = assay: Postemergence herbicidal activity, greenhouse, visual injury: AMARE; conditions: 20-22 d
Description: as §2, §3, §4, §5, §6, §7, §8
The following equation was used to calculate the expected activity of mixtures containing two active ingredients, A and B: Expected=A+B−(A×B/100) […]

[9] = tested on: durum wheat (Triticum durum L; TRZDU); assay: Postemergence herbicidal safening in cereal crops, greenhouse, visual injury: durum wheat; conditions: 20-22 d
Description: as §2, §3, §4, §5, §6, §7, §8, §9, §10, §11

[10] = Compound 10 0, CQC-M 8.75 g ae/ha
[11] = Compound 10 0, CQC-M 17.5 g ae/ha
[12] = Compound 10 0, CQC-M 35 g ae/ha
[13] = Compound 10 0, CQC-M 70 g ae/ha
[14] = Compound 10 0, CQC-M 140 g ae/ha

CCCCCC(C)OC(=O)COc1ccc(Cl)c2cccnc12 (stereo not shown) [CQC-M, cloquintocet-mexyl, reference compound]
pest or weed control at 0.547 g/ha ([1]; Triticum aestivum, post-emergence, 480 h, safener alone 0.547 g/ha, 20-22 d, read-out: TRZAS Ob (visual injury)): 0%
pest or weed control at 2.1875 g/ha ([1]; Triticum aestivum, post-emergence, 480 h, safener alone 2.1875 g/ha, 20-22 d, read-out: TRZAS Ob (visual injury)): 0%
pest or weed control at 8.75 g/ha ([1]; Triticum aestivum, post-emergence, 480 h, safener alone 8.75 g/ha, 20-22 d, read-out: TRZAS Ob (visual injury)): 0%
pest or weed control at 35 g/ha ([1]; Triticum aestivum, post-emergence, 480 h, safener alone 35 g/ha, 20-22 d, read-out: TRZAS Ob (visual injury)): 0%
pest or weed control at 140 g/ha ([1]; Triticum aestivum, post-emergence, 480 h, safener alone 140 g/ha, 20-22 d, read-out: TRZAS Ob (visual injury)): 0%
TRZAS Ob (Observed values, % control) ([1]; in vivo): 0%
pest or weed control at 0.547 g/ha ([2]; Hordeum vulgare, post-emergence, 480 h, safener alone 0.547 g/ha, 20-22 d, read-out: HORVS Ob (visual injury)): 0%
pest or weed control at 2.1875 g/ha ([2]; Hordeum vulgare, post-emergence, 480 h, safener alone 2.1875 g/ha, 20-22 d, read-out: HORVS Ob (visual injury)): 0%
pest or weed control at 8.75 g/ha ([2]; Hordeum vulgare, post-emergence, 480 h, safener alone 8.75 g/ha, 20-22 d, read-out: HORVS Ob (visual injury)): 0%
HORVS Ob (Observed values, % control) ([2]; in vivo): 0%
MATCH Ob (Observed values, % control) (MATCH; [10]): 0%
MATCH Ob (Observed values, % control) (MATCH; [11]): 0%
MATCH Ob (Observed values, % control) (MATCH; [12]): 0%
MATCH Ob (Observed values, % control) (MATCH; [13]): 0%
MATCH Ob (Observed values, % control) (MATCH; [14]): 0%
MATCH Ob (visual injury) (MATCH; safener alone 70 g/ha): 0%
MATCH Ob (visual injury) (MATCH; safener alone 140 g/ha): 0%
HORVW Ob (visual injury) ([3]; safener alone 0.547 g/ha): 0%
HORVW Ob (visual injury) ([3]; safener alone 2.1875 g/ha): 0%
HORVW Ob (visual injury) ([3]; safener alone 8.75 g/ha): 0%
HORVW Ob (visual injury) ([3]; safener alone 35 g/ha): 0%
HORVW Ob (visual injury) ([3]; safener alone 70 g/ha): 0%
HORVW Ob (visual injury) ([3]; safener alone 140 g/ha): 0%
TRZAW Ob (visual injury) ([4]; safener alone 0.547 g/ha): 0%
TRZAW Ob (visual injury) ([4]; safener alone 2.1875 g/ha): 0%
TRZAW Ob (visual injury) ([4]; safener alone 8.75 g/ha): 0%
TRZAW Ob (visual injury) ([4]; safener alone 35 g/ha): 0%
TRZAW Ob (visual injury) ([4]; safener alone 70 g/ha): 0%
TRZAW Ob (visual injury) ([4]; safener alone 140 g/ha): 0%
LAMPU Ob (Observed values, % control) [5, 10]: 0%
LAMPU Ob (Observed values, % control) [5, 11]: 0%
LAMPU Ob (Observed values, % control) [5, 12]: 0%
LAMPU Ob (Observed values, % control) [5, 13]: 0%
LAMPU Ob (Observed values, % control) [5, 14]: 0%
pest or weed control at 35 g/ha ([5]; Lamium purpureum, post-emergence, 480 h, safener alone 35 g/ha, 20-22 d, read-out: LAMPU Ob (visual injury)): 0%
pest or weed control at 140 g/ha ([5]; Lamium purpureum, post-emergence, 480 h, safener alone 140 g/ha, 20-22 d, read-out: LAMPU Ob (visual injury)): 0%
VIOTR Ob (Observed values, % control) [6, 10]: 0%
VIOTR Ob (Observed values, % control) [6, 11]: 0%
VIOTR Ob (Observed values, % control) [6, 12]: 0%
VIOTR Ob (Observed values, % control) [6, 13]: 0%
VIOTR Ob (Observed values, % control) [6, 14]: 0%
KCHSC Ob (Observed values, % control) [7, 10]: 0%
KCHSC Ob (Observed values, % control) [7, 11]: 0%
KCHSC Ob (Observed values, % control) [7, 12]: 0%
KCHSC Ob (Observed values, % control) [7, 13]: 0%
KCHSC Ob (Observed values, % control) [7, 14]: 0%
KCHSC Ob (visual injury) ([7]; safener alone 8.75 g/ha): 0%
KCHSC Ob (visual injury) ([7]; safener alone 70 g/ha): 0%
KCHSC Ob (visual injury) ([7]; safener alone 140 g/ha): 0%
VERPE Ob (Observed values, % control) [8, 10]: 0%
VERPE Ob (Observed values, % control) [8, 11]: 0%
VERPE Ob (Observed values, % control) [8, 12]: 0%
VERPE Ob (Observed values, % control) [8, 13]: 0%
VERPE Ob (Observed values, % control) [8, 14]: 0%
VERPE Ob (visual injury) ([8]; safener alone 8.75 g/ha, 20-22 d): 0%
AMARE Ob (visual injury) (AMARE; safener alone 35 g/ha): 0%
AMARE Ob (visual injury) (AMARE; safener alone 70 g/ha): 0%
AMARE Ob (visual injury) (AMARE; safener alone 140 g/ha): 0%
TRZDU Ob (visual injury) ([9]; safener alone 0.547 g/ha): 0%
TRZDU Ob (visual injury) ([9]; safener alone 2.1875 g/ha): 0%
TRZDU Ob (visual injury) ([9]; safener alone 8.75 g/ha): 0%
TRZDU Ob (visual injury) ([9]; safener alone 35 g/ha): 0%
TRZDU Ob (visual injury) ([9]; safener alone 70 g/ha): 15%
TRZDU Ob (visual injury) ([9]; safener alone 140 g/ha): 20%
